Experiments:
MCF-10A cells = test: SRB cytotoxicity assay, non-tumorigenic MCF-10A; type: cell-based, human; details: for Selectivity Index MCF-10A/MCF-7: IC50 MCF-10A / IC50 MCF-7; for IC50: non-tumorigenic human breast epithelial MCF-10A cells, SRB assay
Excerpt: The two examined human breast cancer cell lines (MCF-7 and Breast MDA-MB-231), and non-tumorigenic human breast epithelial cell line (MCF-10A) have been obtained from the American Type Culture Collection (ATCC). Assessment of cytotoxicity for target indole derivatives has been performed following the SRB colorimetric assay procedures, as reported earlier.
1. Anti-proliferative action toward human breast cell lines
The two examined human breast cancer cell lines (MCF-7 and Breast MDA-MB-231), and non-tumorigenic human breast epithelial cell line (MCF-10A) have been obtained from American Type Culture Collection (ATCC). The cells were maintained in Dulbecco's modified Eagle's medium (DMEM) supplemented with 10% heat inactivated fetal calf serum (GIBCO), penicillin (100 U/ml) and streptomycin (100 µg/ml) at 37 °C in humidified atmosphere containing 5% CO2. Cells at a concentration of 0.50 x 106 were grown in a 25 cm2 flask in 5 ml of culture medium.
The anti-proliferative activity of the tested compounds was measured in vitro using the Sulfo-Rhodamine-B stain (SRB) assay. Briefly, Cells were inoculated in 96-well microtiter plate (5X104 cells/ well) for 24 h before treatment with the tested compounds to allow attachment of cell to the wall of the plate. Tested compounds were dissolved in DMSO at 1 mg/ml immediately before use and diluted to the appropriate volume just before addition to the cell culture. Different concentrations of tested compounds, doxorubicin and sorafenib were added to the cells (three wells were prepared for each individual dose). Cells were incubated with the compounds for 48 h at 37°C and in atmosphere of 5% CO2. After 48 h cells were fixed, washed, and stained for 30 min with 0.4% (w/v) SRB dissolved in 1% acetic acid. Unbound dye was removed by four washes with 1% acetic acid, and attached stain was recovered with Tris-EDTA buffer. Color intensity was measured in an ELISA reader. The relation between percent of surviving fraction and drug concentration is plotted to get the survival curve for each cell line. […]

MDA-MB-231 cells = test: SRB antiproliferative assay, MDA-MB-231; type: cell-based, human; details: for IC50: MDA-MB-231 triple-negative breast cancer cells, SRB assay, 48 h, mean ± S.D. of three experiments; for potency relative to Staurosporine, MDA-MB-231 / potency relative to non-brominated counterpart (9g vs 9d, 9h vs 9e), MDA-MB-231: ratio of IC50 values, MDA-MB-231 cells
Method: (§1) 1. Anti-proliferative action toward human breast cell lines […]
(§2) and non-tumorigenic human breast epithelial cell line (MCF-10A) have been obtained from American Type Culture Collection (ATCC). The cells were maintained in Dulbecco's modified Eagle's medium (DMEM) supplemented with 10% heat inactivated fetal calf serum (GIBCO), penicillin (100 U/ml) and streptomycin (100 µg/ml) at 37 °C in humidified atmosphere containing 5% CO2. […]
(§3) grown in a 25 cm2 flask in 5 ml of culture medium.
(§4) The anti-proliferative activity of the tested compounds was measured in vitro using the Sulfo-Rhodamine-B stain (SRB) assay. Briefly, Cells were inoculated in 96-well microtiter plate (5X104 cells/ well) for 24 h before treatment with the tested compounds to allow attachment of cell to the wall of the plate. Tested compounds were dissolved in DMSO at 1 mg/ml immediately before use and diluted to the appropriate volume just before addition to the cell culture. Different concentrations of tested compounds, doxorubicin and sorafenib were added to the cells (three wells were prepared for each […]
(§5) atmosphere of 5% CO2. After 48 h cells were fixed, washed, and stained for 30 min with 0.4% (w/v) SRB dissolved in 1% acetic acid. Unbound dye was removed by four washes with 1% acetic acid, and attached stain was recovered with Tris-EDTA buffer. Color intensity was measured in an ELISA reader. The relation between percent of surviving fraction and drug concentration is plotted to get the survival curve for each cell line. […]

MCF-7 cells = test: SRB antiproliferative assay, MCF-7; type: cell-based, human; details: for IC50: MCF-7 breast cancer cells, SRB assay, 48 h, mean ± S.D. of three experiments; for potency relative to Staurosporine, MCF-7: ratio of IC50 values, MCF-7 cells
Method: as §1, §2, §3, §4, §5

CDK2 = biological target: T1, CDK2 (Homo sapiens, UniProt P24941); test: CDK2 kinase inhibition (Reaction Biology HotSpot); type: biochemical; details: single dose of 10 µM; for % Enzyme Inhibitory Activity: 10 µM; for inhibition at 10 µM: read-out: % Enzyme Inhibitory Activity
T1 construct: purchased Reaction Biology Corp. (Kinase HotSpot service)
Method: The in vitro CDK2 kinase inhibition assay was carried out by Reaction Biology Corp. (Reaction Biology Corp., Chester, PA, USA) Kinase HotSpotSM service (http://www.reactionbiology.com).
5. CDK2 kinase inhibitory activity
Reaction Biology Corp. Kinase HotSpotSM service
(http://www.reactionbiology.com) was used for screening of tested compounds. CDK2 Kinase inhibitory activity was assessed by the HotSpot assay platform, which contained specific kinase/substrate pairs along with required cofactors. Base reaction buffer:
0.1 mM Na3VO4, 2 mM DTT, 1% DMSO. Testing compounds were dissolved in 100% DMSO to specific concentration. The serial dilution was conducted by Integra Viaflo Assist in DMSO. The reaction mixture containing the examined compound and 33P-ATP was incubated at room temperature for 2 h and radioactivity was detected by filter-binding method. Kinase activity data were expressed as the percent remaining kinase activity in test samples compared to vehicle (dimethyl sulfoxide) reactions.

Row | Molecule | IC50 (MDA-MB-231 cells; Homo sapiens, MDA-MB-231, 48 h) [µM] | IC50 (MCF-7 cells; Homo sapiens, MCF7, 48 h) [µM] | melting point [°C] | % Enzyme Inhibitory Activity (CDK2) [%] | inhibition at 10 µM (CDK2) [%] | Selectivity Index MCF-10A/MCF-7 (MCF-10A cells) | IC50 (MCF-10A cells) [µM] | potency relative to Staurosporine, MCF-7 (MCF-7 cells) [times] | potency relative to Staurosporine, MDA-MB-231 (MDA-MB-231 cells) [times] | IC50 (MCF-7 cells) [µM] | potency relative to non-brominated counterpart (9g vs 9d, 9h vs 9e), MDA-MB-231 (MDA-MB-231 cells) [times] | IC50 (MDA-MB-231 cells) [µM]
1 | O=C(Cc1c[nH]c2ccccc12)NN=C1C(=O)Nc2ccc(F)cc21 [Compound 7a, N′-(5-Fluoro-2-oxoindolin-3-ylidene)-2-(1H-indol-3-yl)acetohydrazide] | 9.04 ± 0.32 | 1.53 ± 0.02 | 281 to 283 | 41 | 44 | 9.2 | 14.1 | 4.45 |  |  |  | 
2 | O=C(Cc1c[nH]c2ccccc12)NN=C1C(=O)Nc2ccc(Cl)cc21 [Compound 7b, N′-(5-Chloro-2-oxoindolin-3-ylidene)-2-(1H-indol-3-yl)acetohydrazide] | 2.88 ± 0.08 | 8.87 ± 0.43 | 292 to 294 | 41 | 44 | 4.5 | 39.5 |  |  |  |  | 
3 | O=C(Cc1c[nH]c2ccccc12)NN=C1C(=O)Nc2ccc(Br)cc21 [Compound 7c, N′-(5-Bromo-2-oxoindolin-3-ylidene)-2-(1H-indol-3-yl)acetohydrazide] | 36.6 ± 1.81 | 36.2 ± 2.78 | > 300 |  |  |  |  |  |  |  |  | 
4 | Cc1ccc2c(c1)C(=NNC(=O)Cc1c[nH]c3ccccc13)C(=O)N2 [Compound 7d, 2-(1H-Indol-3-yl)-N′-(5-methyl-2-oxoindolin-3-ylidene)acetohydrazide] | 0.34 ± 0.02 | 11 ± 0.81 | > 300 |  | 58 | 5.0 | 54.9 |  | 30.3 |  |  | 
5 | Cc1cc(C)c2c(c1)C(=NNC(=O)Cc1c[nH]c3ccccc13)C(=O)N2 [Compound 7f, N′-(5,7-Dimethyl-2-oxoindolin-3-ylidene)-2-(1H-indol-3-yl)acetohydrazide] | 77.3 ± 6.21 | > 100 | 294 to 296 |  |  |  |  |  |  | > 100 |  | 
6 | O=C(Cc1c[nH]c2ccccc12)NN=C1CCCc2ccccc21 [Compound 11, N′-(3,4-Dihydronaphthalen-1(2H)-ylidene)-2-(1H-indol-3-yl)acetohydrazide] | > 100 | 84.7 ± 4.02 | 244 to 245 |  |  |  |  |  |  |  |  | > 100
7 | CN[C@@H]1C[C@H]2O[C@@](C)([C@@H]1OC)n1c3ccccc3c3c4c(c5c6ccccc6n2c5c31)C(=O)NC4 [Staurosporine, reference compound] |  | 6.81 ± 0.22 |  |  |  |  |  |  |  |  |  | 
8 | N′-(1-(sec-Butyl)-2-oxoindolin-3-ylidene)-2-(1H-indol-3-yl)acetohydrazide [Compound 9c] |  |  |  |  |  |  |  |  |  | 47.1 ± 3.65 |  | > 100

Second part, led by results:

Row | IC50 (MDA-MB-231 cells; Homo sapiens, MDA-MB-231, 48 h) [µM] | IC50 (MCF-7 cells; Homo sapiens, MCF7, 48 h) [µM] | melting point [°C] | % Enzyme Inhibitory Activity (CDK2) [%] | inhibition at 10 µM (CDK2) [%] | Molecule | Selectivity Index MCF-10A/MCF-7 (MCF-10A cells) | IC50 (MCF-10A cells) [µM] | potency relative to Staurosporine, MCF-7 (MCF-7 cells) [times] | potency relative to Staurosporine, MDA-MB-231 (MDA-MB-231 cells) [times] | IC50 (MCF-7 cells) [µM] | potency relative to non-brominated counterpart (9g vs 9d, 9h vs 9e), MDA-MB-231 (MDA-MB-231 cells) [times] | IC50 (MDA-MB-231 cells) [µM]
9 | 51.3 ± 3.59 | 28.2 ± 1.53 | 207 to 208 |  |  | CCCN1C(=O)C(=NNC(=O)Cc2c[nH]c3ccccc23)c2ccccc21 [Compound 9b, 2-(1H-Indol-3-yl)-N′-(2-oxo-1-propylindolin-3-ylidene)acetohydrazide] |  |  |  |  |  |  | 
10 | 4.14 ± 0.19 | 1.51 ± 0.03 | 223 to 225 |  |  | O=C(Cc1c[nH]c2ccccc12)NN=C1C(=O)N(Cc2ccccc2)c2ccccc21 [Compound 9d, N′-(1-Benzyl-2-oxoindolin-3-ylidene)-2-(1H-indol-3-yl)acetohydrazide] | 12.7 | 19.1 | 4.5 | 2.5 |  |  | 
11 | 17.7 ± 0.55 | 10.4 ± 0.81 | 227 to 229 |  |  | O=C(Cc1c[nH]c2ccccc12)NN=C1C(=O)N(Cc2ccc(F)cc2)c2ccccc21 [Compound 9e, N′-(1-(4-Fluorobenzyl)-2-oxoindolin-3-ylidene)-2-(1H-indol-3-yl)acetohydrazide] | 4.7 | 48.4 |  |  |  |  | 
12 | 25.4 ± 1.56 | 8.72 ± 0.39 | 233 to 234 |  |  | N#Cc1ccc(CN2C(=O)C(=NNC(=O)Cc3c[nH]c4ccccc34)c3ccccc32)cc1 [Compound 9f, N′-(1-(4-Cyanobenzyl)-2-oxoindolin-3-ylidene)-2-(1H-indol-3-yl)acetohydrazide] | 4.8 | 42 |  |  |  |  | 
13 | 2.85 ± 0.07 | 2.76 ± 0.14 | 210 to 211 |  |  | O=C(Cc1c[nH]c2ccccc12)NN=C1C(=O)N(Cc2ccccc2)c2ccc(Br)cc21 [Compound 9g, N′-(1-Benzyl-5-bromo-2-oxoindolin-3-ylidene)-2-(1H-indol-3-yl)acetohydrazide] | 6.2 | 17.2 |  |  |  | 1.5 | 
14 | 2.29 ± 0.09 | 20.89 ± 0.04 | 183 to 185 |  |  | O=C(Cc1c[nH]c2ccccc12)NN=C1C(=O)N(Cc2ccc(F)cc2)c2ccc(Br)cc21 [Compound 9h, N′-(5-Bromo-1-(4-fluorobenzyl)-2-oxoindolin-3-ylidene)-2-(1H-indol-3-yl)acetohydrazide] | 1.2 | 26.1 |  |  |  | 7.7 | 

— publication PMC7230731 (Marine Drugs, 2020)
